The source of these data is the SangsterLogP compilation.

Structures are written as SMILES.

`CCCCCCCCCCCCCCCCCCCl` had a logP of 8.7.

In turn, `c1ccc(Cc2ccccc2)cc1` yielded a logP of 4.22. In the case of `C=CCCCCCCC=C` it was 5.7; in that of `Clc1cc(Cl)c(-c2c(Cl)cc(Cl)cc2Cl)c(Cl)c1`, 6.39; in that of `c1ccc(C2CCCCC2)cc1`, 5.54. Consider `C=C(C)CC(C)(C)C`, for which the logP was 5.44. The compound `CCCCCCC(=O)OC` came in with a logP of 3.1. The figure for `CC(C)CC(C)(C)C` is 5.83; for `c1ccc2c(c1)ccc1cc3c(ccc4ccccc43)cc12` it is 6.88. In turn, `CCCCCCCCCCCCCCCCC` had a logP of 8.92. The figure for `CCCCC(CC)CCl` (centres undefined) is 5.2; for `CCCCCCCCCC` it is 6.69.

For `BrCC(Br)C(Br)CBr` (centres undefined), the logP was 3.22. In the case of `Brc1ccc(Br)s1` it was 4.15.
